From US20030060438A1, “Oligonucleotides and other modulators of the NK-1 receptor pathway and therapeutic uses thereof” (priority 2000, published 2003)
Entries after “also recorded” stand apart in the source; their conditions may differ.

How the values were obtained:
NK-1 receptor [1] = assay: Capsaicin test, nociceptive behaviour after plantar injection, intrathecal oligonucleotide; format: in vivo, rat; conditions: intrathecal continuous infusion 2 micro grams/microlitres/h for 7 days; vs ACSF or MIS
From the text: The effect of intrathecal administration of NK-1 receptor antisense oligonucleotide on the nociceptive responses induced by capsaicin is shown in FIG. 2. This test consists of injecting a dilute solution of the active ingredient of hot peppers, capsaicin subcutaneously in the plantar surface of the rat hind paw. Capsaicin, C18H27NO3, is a known painful stimulus, especially of c-fibers, which are associated with substance P.
Capsaicin produces nociceptive (pain) behaviors over a period of about 5 minutes. The index of nociceptive behavior was assessed based a weighted pain intensity scale, where the animal is given a value of 0 for showing no signs of favoring of the injected paw, 1—favoring of hind paw such that it is resting lightly on the floor, 2—elevation of hind paw, 3—licking or vigorously shaking the hind paw. The numerical ratings were calculated by multiplying the amount of time the rats spent in each category by the weighted factor indicated above. This was expressed by the following formula: (time spent in category 0*0+time spent in category 1*1+time spent in category 2*2+time spent in category 3*3)/180 seconds. Oligonucleotides or ASCF control (artificial cerebral spinal fluid) were administered for 7 days prior to testing by continuous infusion (2 micro grams/microlitres/h) via Alzet™ minipumps attached to intrathecal catheters for spinal delivery. […]

NK-1 receptor [2] = assay: Substance P-induced thermal hyperalgesia, intrathecal oligonucleotide; format: in vivo; conditions: intrathecal 75 micro grams/10 microlitres Q12h with SP
Experimental: The effect of intrathecal (spinal) administration of NK-1 receptor antisense oligonucleotide on substance P-induced thermal hyperalgesia is shown in FIG. 1.
Latency to thermal stimulation (baseline (B) recordings) was assessed prior to intrathecal injection of substance P (SP, indicated by the arrow in both upper and lower panels). On day 0 (before oligonucleotide treatment has begun), SP (6.7 nmol/10 microlitres) produced a decrease in thermal latency to response indicating the occurrence of hyperalgesia (exaggerated response to noxious or painful stimulation, hollow symbols on both upper and lower panels). Oligonucleotide treatment (75 micro grams/10 microlitres, Q12h for 6 days) or ASCF control (artificial cerebral spinal fluid) was commenced subsequent to assessment of substance P-induced thermal hyperalgesia on day 0. Intrathecal SP (6.7 nmol/10 microlitres, Q12h for 6 days) was administered, in addition to the oligonucleotide, to stimulate NK-1 receptor turnover. Three days after twice-daily injections of antisense (AS) were begun, SP-induced thermal hyperalgesia was attenuated (upper graph, triangles). […] Statistical analysis was performed by a two way ANOVA with time and treatment as independent measures. Time: F(6,21)=10.234, p<0.01, Treatment: F(6,21)=8.245, p<0.05.

NK-1 receptor [3] = assay: CFA ankle joint arthritis model, ankle circumference, intrathecal oligonucleotide; format: in vivo, rat; conditions: intrathecal 1 micro grams/microlitres/h from 48 h prior to CFA injection; vs ACSF or MIS
Experimental: Complete Freund's Adjuvant (CFA) injection into the ankle joint of the rat produces two responses, an inflammatory response that begins within 24 hours and lasts approximately one week, and a later inflammatory response combined with symptoms modelling arthritis. Oligonucleotides or ASCF control (artificial cerebral spinal fluid) was administered for 48 h prior to CFA injection and continuously for the testing days (1 micro grams/microlitres/h) via Alzet® minipumps attached to intrathecal catheters for spinal delivery. […] Statistical analysis was performed using a one way ANOVA and post hoc analysis using the Dunnett's test.

NK-1 receptor [4] = assay: Formalin test, intrathecal oligonucleotide; format: in vivo, rat
Experimental: The formalin test is similar in some ways to the capsaicin test, in that a noxious chemical is injected under the skin. In the case of formalin, however, this produces nociceptive behavior lasting up to one hour, and thus represents a longer-term tonic pain. The pain score was determined using the same parameters outlined above for the capsaicin test. Oligonucleotides or ASCF control (artificial cerebral spinal fluid) were administered for 7 days prior to testing by continuous infusion (1 micro grams/microlitres/h) via Alzet® minipumps attached to intrathecal catheters for spinal delivery. […] Statistical analysis was performed by a two way ANOVA with time and treatment as independent measures. Time: F(9,44)=8.264, p<0.05, Treatment: F(9,44)=7.254, p<0.05.
Antisense (AS) oligonucleotide or ASCF control (artificial cerebral spinal fluid) was administered for 7 days prior to testing by continuous infusion (0.45 micro grams/microlitres/h) via Alzet® minipumps attached to intrathecal catheters for spinal delivery. […] Statistical analysis was performed by a two way ANOVA with time and treatment as independent measures. Time: F(9,17)=7.985, p<0.05, Treatment: F(9,17)=2.541, p>0.05.

NK-1 receptor [5] = assay: Western blot of NK-1 receptor protein in lumbar spinal cord after intrathecal oligonucleotide, neuropathic pain model; format: in vivo, rat; conditions: intrathecal 2 micro grams/microlitres/h, 48 h prior to sciatic nerve constriction and continuously for 6 days
Experimental: Oligonucleotides or ASCF control (artificial cerebral spinal fluid) was administered for 48 h prior to sciatic nerve constriction and continuously for 6 days (2 micro grams/microlitres/h) via Alzet® minipumps attached to intrathecal catheters for spinal delivery. Rats were sacrificed by decapitation and lumbar spinal cords were dissected and processed for Western blotting analysis. Samples were resolved using 10% Tris-glycine gels and the proteins were electroblotted onto nitrocellulose membranes. Molecular mass markers are presented in the right column. The arrow indicates the NK-1 receptor.

5′gac gtt atc cat ttt ggg g3′ (antisense GACGTTATCCATTTTGGGG; listed as DNA, chemistry not fully specified) [NK-1 receptor antisense oligonucleotide used in all experiments]
capsaicin-induced nociceptive behavior (weighted pain score) (NK-1 receptor [1]): less time spent in nociceptive behavior | SP-induced thermal hyperalgesia (thermal latency) (NK-1 receptor [2]; six days after start): further decrease in the response to SP | SP-induced thermal hyperalgesia (thermal latency) (NK-1 receptor [2]; three days after start): attenuated | magnitude of inflammation, measured as ankle circumference (NK-1 receptor [3]): less | formalin-induced nociceptive responses, lower dose (NK-1 receptor [4]; intrathecal continuous infusion 0.45 micro grams/microlitres/h for 7 days prior to testing): without effect; also recorded: no attenuation | formalin-induced nociceptive scores (NK-1 receptor [4]; intrathecal continuous infusion 1 micro grams/microlitres/h for 7 days prior to testing): nociceptive scores are less | NK-1 receptor protein expression (Western blot) compared to ACSF control (NK-1 receptor [5]): significantly attenuates the protein expression
